In patent publication US10781202B2, “Azetidinyloxyphenylpyrrolidine compounds” (Eli Lilly and Company, priority 2014, dated 2020):

molecular target: PDE4B (Homo sapiens (Human), UniProt Q07343); assay: PDE4 Inhibition In Vitro Assay (PDE4B); assay type: biochemical; details: human recombinant PDE4B; 15 minutes at 30° C.; 2.5% DMSO
Description: PDE4 Inhibition In Vitro Assay
The phosphodiesterase assays are performed essentially according to the method described in Loughney, K., et al., J. Biol. Chem., 271, pp. 796-806 (1996). PDE4A, PDE4B, PDE4C, PDE4D, and PDE5 human recombinant proteins are expressed and purified from Saccharomyes cerevisiae that lack endogenous PDEs. The phosphodiesterase enzymes are diluted on ice with enzyme dilution buffer (25 mM Tris, pH 7.5, 0.1 mM DTT, 5.0 mM MgCl2, 100 mM NaCl, 5 μM ZnSO4, 100 μg/mL BSA) to give approximately 20%-40% hydrolysis of cyclic nucleotide monophosphate (cNMP) in the absence of inhibitor.
The stock solution of test compounds are diluted on the Beckman BioMek™ 1000 workstation to span a concentration range of 4.5 log units in 0.5 log increments. The DMSO concentration in the final test system is 2.5% for all PDE enzymes. The final test compound concentration tested ranged from 0.03 nM to 1 μM.
The assay is performed in a 96-well microtiter plate format on a Beckman BioMek™ 1000 robotic station. Each row of the plate represents a 10-point dose response curve containing blank (no enzyme), non-inhibited control, and inhibitor dilutions spanning 4.5 log units in concentration in 0.5 log increments. Assay stock solutions are loaded into the Biomek™ reservoirs (water, inhibitor diluent [2.5% or 10% DMSO], 5× PDE assay buffer, substrate, inhibitor solutions, enzyme solutions, snake venom nucleotidase, and charcoal suspension). The reaction is initiated with enzyme, and incubated for 15 minutes at 30° C. An excess of Crotalus atrox snake venom nucleotidase (5 μL/well) is then added and the mixture is incubated for an additional 3 minutes. The reaction is terminated by the addition of 200 μL of activated charcoal suspension, after which the plate is centrifuged for 5 minutes at 750×g. A transfer program is run in which 200 μL of supernatant is removed and placed into a new plate. The amount of radioactivity released as phosphate is determined in a Wallac MicroBeta Plate™ counter.
The reduced data at each concentration of inhibitor is analyzed using a four-, three- or two-parameter logistic dose response model to provide an IC50 value.

Chain of PDE4B (Q07343 whole entry): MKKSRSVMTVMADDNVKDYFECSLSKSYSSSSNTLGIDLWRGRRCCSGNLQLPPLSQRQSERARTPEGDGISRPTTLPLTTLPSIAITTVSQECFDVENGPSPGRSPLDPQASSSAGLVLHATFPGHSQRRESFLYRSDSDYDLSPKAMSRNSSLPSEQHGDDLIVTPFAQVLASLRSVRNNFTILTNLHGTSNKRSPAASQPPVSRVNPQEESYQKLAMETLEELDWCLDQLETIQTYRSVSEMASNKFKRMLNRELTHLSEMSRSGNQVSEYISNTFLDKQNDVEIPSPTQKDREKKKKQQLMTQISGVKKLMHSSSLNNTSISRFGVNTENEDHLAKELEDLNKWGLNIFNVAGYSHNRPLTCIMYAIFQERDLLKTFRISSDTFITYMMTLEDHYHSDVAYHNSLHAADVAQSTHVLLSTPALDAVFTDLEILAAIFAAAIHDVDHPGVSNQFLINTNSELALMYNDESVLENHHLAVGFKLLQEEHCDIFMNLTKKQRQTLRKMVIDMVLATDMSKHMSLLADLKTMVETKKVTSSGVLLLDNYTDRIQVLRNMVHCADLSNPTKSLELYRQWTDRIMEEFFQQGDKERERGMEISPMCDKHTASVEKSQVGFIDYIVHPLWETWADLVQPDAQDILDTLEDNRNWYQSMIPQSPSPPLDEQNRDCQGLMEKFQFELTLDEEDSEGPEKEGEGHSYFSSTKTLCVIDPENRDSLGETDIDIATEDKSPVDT

`[2H]C([2H])([2H])c1ccc(N2CC(Oc3cc([C@@H]4CN(C(=O)[C@@H](O)CO)C[C@@]4(C)[C@@H](C)O)ccc3OC)C2)nc1` [Example 14, (S)-2,3-dihydroxy-1-((3S,4S)-3-((R)-1-hydroxyethyl)-4-(4-methoxy-3-((1-(5-(methyl-D3)pyridin-2-yl)azetidin-3-yl)oxy)phenyl)-3-methylpyrrolidin-1-yl)propan-1-one] and `COc1ccc([C@@H]2CN(C(=O)[C@@H](O)CO)C[C@@]2(C)[C@@H](C)O)cc1OC1CN(c2ccc(Cl)cn2)C1` [Example 12, (2S)-3-[(3S,4S)-3-[(1R)-1-hdyroxyethyl]-4-(4-methoxy-3-{[1-(5-chloropyridin-2-yl)azetidin-3-yl]oxy}phenyl)-3-methylpyrrolidin-1-yl]-3-oxopropane-1,2-diol] are within 1.5-fold of each other in IC50: 0.13 nM for the first, 0.16 nM for the second.

`COc1ccc([C@@H]2CN(C(=O)[C@@H](O)CO)C[C@@]2(C)[C@@H](C)O)cc1OC1CN(c2cc(C#N)ccn2)C1` [Example 7, (2S)-3-[(3S,4S)-3-[(1R)-1-hydroxyethyl]-4-(4-methoxy-3-{[1-(4-cyanopyridin-2-yl)azetidin-3-yl]oxy}phenyl)-3-methylpyrrolidin-1-yl]-3-oxopropane-1,2-diol] and `COc1ccc([C@@H]2CN(C(=O)[C@@H](O)CO)C[C@@]2(C)[C@@H](C)O)cc1OC1CN(c2ccc(C#N)cn2)C1` [Example 6, (2S)-3-[(3S,4S)-3-[(1R)-1-hydroxyethyl]-4-(4-methoxy-3-{[1-(5-cyanopyridin-2-yl)azetidin-3-yl]oxy}phenyl)-3-methylpyrrolidin-1-yl]-3-oxopropane-1,2-diol] are within 1.5-fold of each other in IC50: 0.44 nM for the first, 0.31 nM for the second.

Compared with `COc1ccc([C@@H]2CN(C(=O)[C@@H](O)CO)C[C@@]2(C)[C@@H](C)O)cc1OC1CN(c2cccnc2)C1` [Example 2, (2S)-3-[(3S,4S)-3-[(1R)-1-hydroxyethyl]-4-{4-methoxy-3-[(1-pyridin-3-ylazetidin-3-yl)oxy]phenyl}-3-methylpyrrolidin-1-yl]-3-oxopropane-1,2-diol], `COc1ccc([C@@H]2CN(C(=O)[C@@H](O)CO)C[C@@]2(C)[C@@H](C)O)cc1OC1CN(c2ccncc2)C1` [Example 3, (2S)-3-[(3S,4S)-3-[(1R)-1-hydroxyethyl]-4-{4-methoxy-3-[(1-pyridin-4-ylazetidin-3-yl)oxy]phenyl}-3-methylpyrrolidin-1-yl]-3-oxopropane-1,2-diol] is 4.3-fold higher in IC50: 1.8 nM for the first, 7.7 nM for the second. The first is the more potent here.

First: COc1ccc([C@@H]2CN(C(=O)[C@@H](O)CO)C[C@@]2(C)[C@@H](C)O)cc1OC1CN(c2ncccn2)C1 [Example 5, (2S)-3-[(3S,4S)-3-[(1R)-1-hydroxyethyl]-4-{4-methoxy-3-[(1-pyrimidin-2-ylazetidin-3-yl)oxy]phenyl}-3-methylpyrroldiin-1-yl]-3-oxopropane-1,2-diol]
Second: COc1ccc([C@@H]2CN(C(=O)[C@@H](O)CO)C[C@@]2(C)[C@@H](C)O)cc1OC1CN(c2ccncn2)C1 [Example 13, (2S)-3-[(3S,4S)-3-[(1R)-1-hydroxyethyl]-4-(4-methoxy-3-{[1-(pyrimidin-4-yl)azetidin-3-yl]oxy}phenyl)-3-methylpyrrolidin-1-yl]-3-oxopropane-1,2-diol]
The IC50 of the first is 2.5-fold lower: 1.5 nM for the first, 3.8 nM for the second. The first is the more potent here.

In the case of `COc1ccc([C@@H]2CN(C(=O)[C@@H](O)CO)C[C@@]2(C)[C@@H](C)O)cc1OC1CN(c2cc(Cl)ncn2)C1` [Example 8, (2S)-3-[(3S,4)S-3-[(1R)-1-hydroxyethyl]-4-{4-methoxy-3-[(1-(6-chloropyrimidin-4-yl)azetidin-3-yl)oxy]phenyl}-3-methylpyrrolidin-1-yl]-3-oxopropane-1,2-diol], the IC50 is reported as 0.53 nM.

test system: chronic cyclophosphamide (CYP)-induced overactive bladder mouse model; assay: Overactive Bladder In Vivo Model; details: tadalafil 10 mg/kg orally daily; CYP-induced OAB female C57/B16 mice; day 8, 4 hour urine collection
Description: Overactive Bladder In Vivo Model
The in vivo effect of PDE4 inhibitors on OAB is studied with a chronic cyclophosphamide (CYP)-induced overactive bladder mouse model adapted from Boudes et al., Neurourol. Urodynam. 2011. In a typical study, female C57/B16 mice, approximately 20 grams in body weight (Harlan Laboratories, Inc., Indianapolis, Ind.) are used. Mice are randomized by body weight into groups one day before the start of the study. Mice are individually housed and maintained on a 12 hour light/dark cycle at 22° C. with ad lib access to food (TD 2014 with 0.72% Ca and 0.61% P, 990 IU/g D3, Teklad™, Madison, Wis.) and water Animals receive cyclophosphamide (dissolved in physiological saline) i.p. administration at 100 mg/kg on days 1, 3, 5, and 7 to chronically induce OAB. The vehicle control group received daily vehicle (HEC 1%/Tween 80 0.25%/Antifoam 0.05%) administered orally. All other groups are administered orally tadalafil at 10 mg/kg in combination with 0.1, 1.0, or 10.0 mg/kg of test compound daily at a volume of 200 μl/mouse. On day 8, mice are housed in urine collection chambers with a filter paper placed underneath chamber. Prior to urine collection, gavages of 1 ml water are given to each mouse. […] Voiding frequency and volume/void are calculated using Image J software (NIH). Data are statistically analyzed with JMP8® software (Cary, N.C.). […]

For `CN1CC(=O)N2[C@H](c3ccc4c(c3)OCO4)c3[nH]c4ccccc4c3C[C@@H]2C1=O` [tadalafil], the urinary frequency was “no significant activity”.

`CN1CC(=O)N2[C@H](c3ccc4c(c3)OCO4)c3[nH]c4ccccc4c3C[C@@H]2C1=O` [tadalafil] was tested, and the volume per void was “no significant activity”.
